In patent publication US12685735B2 (Foghorn Therapeutics Inc., priority 2020, dated 2026):
Where two headings read alike, the source gives them in different places.

Legend:
[1] = biological target: BRM (Homo sapiens, UniProt P51531); test: ATPase catalytic activity assay of BRM (ADP-Glo); type: biochemical; conditions: for IC50: read-out: BRM IC50 (μM)*
Procedure, shortened: (§1)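 Luminescence from ADP formed by BRM or BRG-1 ATPase was detected after a two-step ADP-Glo workup at room temperature. The first step, removing unconsumed ATP, took 40 min; the second, converting ADP to ATP for luciferase, took 60 min.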

[2] = biological target: BRG-1 (Homo sapiens, UniProt P51532); test: ATPase catalytic activity assay of BRG-1 (ADP-Glo); type: biochemical; conditions: ATPase catalytic activity, ADP-Glo; for IC50: read-out: BRG1 IC50 (μM)*; for Emax: read-out: BRG1 Max % Inhibition
Chain of BRG-1 (P51532 whole entry): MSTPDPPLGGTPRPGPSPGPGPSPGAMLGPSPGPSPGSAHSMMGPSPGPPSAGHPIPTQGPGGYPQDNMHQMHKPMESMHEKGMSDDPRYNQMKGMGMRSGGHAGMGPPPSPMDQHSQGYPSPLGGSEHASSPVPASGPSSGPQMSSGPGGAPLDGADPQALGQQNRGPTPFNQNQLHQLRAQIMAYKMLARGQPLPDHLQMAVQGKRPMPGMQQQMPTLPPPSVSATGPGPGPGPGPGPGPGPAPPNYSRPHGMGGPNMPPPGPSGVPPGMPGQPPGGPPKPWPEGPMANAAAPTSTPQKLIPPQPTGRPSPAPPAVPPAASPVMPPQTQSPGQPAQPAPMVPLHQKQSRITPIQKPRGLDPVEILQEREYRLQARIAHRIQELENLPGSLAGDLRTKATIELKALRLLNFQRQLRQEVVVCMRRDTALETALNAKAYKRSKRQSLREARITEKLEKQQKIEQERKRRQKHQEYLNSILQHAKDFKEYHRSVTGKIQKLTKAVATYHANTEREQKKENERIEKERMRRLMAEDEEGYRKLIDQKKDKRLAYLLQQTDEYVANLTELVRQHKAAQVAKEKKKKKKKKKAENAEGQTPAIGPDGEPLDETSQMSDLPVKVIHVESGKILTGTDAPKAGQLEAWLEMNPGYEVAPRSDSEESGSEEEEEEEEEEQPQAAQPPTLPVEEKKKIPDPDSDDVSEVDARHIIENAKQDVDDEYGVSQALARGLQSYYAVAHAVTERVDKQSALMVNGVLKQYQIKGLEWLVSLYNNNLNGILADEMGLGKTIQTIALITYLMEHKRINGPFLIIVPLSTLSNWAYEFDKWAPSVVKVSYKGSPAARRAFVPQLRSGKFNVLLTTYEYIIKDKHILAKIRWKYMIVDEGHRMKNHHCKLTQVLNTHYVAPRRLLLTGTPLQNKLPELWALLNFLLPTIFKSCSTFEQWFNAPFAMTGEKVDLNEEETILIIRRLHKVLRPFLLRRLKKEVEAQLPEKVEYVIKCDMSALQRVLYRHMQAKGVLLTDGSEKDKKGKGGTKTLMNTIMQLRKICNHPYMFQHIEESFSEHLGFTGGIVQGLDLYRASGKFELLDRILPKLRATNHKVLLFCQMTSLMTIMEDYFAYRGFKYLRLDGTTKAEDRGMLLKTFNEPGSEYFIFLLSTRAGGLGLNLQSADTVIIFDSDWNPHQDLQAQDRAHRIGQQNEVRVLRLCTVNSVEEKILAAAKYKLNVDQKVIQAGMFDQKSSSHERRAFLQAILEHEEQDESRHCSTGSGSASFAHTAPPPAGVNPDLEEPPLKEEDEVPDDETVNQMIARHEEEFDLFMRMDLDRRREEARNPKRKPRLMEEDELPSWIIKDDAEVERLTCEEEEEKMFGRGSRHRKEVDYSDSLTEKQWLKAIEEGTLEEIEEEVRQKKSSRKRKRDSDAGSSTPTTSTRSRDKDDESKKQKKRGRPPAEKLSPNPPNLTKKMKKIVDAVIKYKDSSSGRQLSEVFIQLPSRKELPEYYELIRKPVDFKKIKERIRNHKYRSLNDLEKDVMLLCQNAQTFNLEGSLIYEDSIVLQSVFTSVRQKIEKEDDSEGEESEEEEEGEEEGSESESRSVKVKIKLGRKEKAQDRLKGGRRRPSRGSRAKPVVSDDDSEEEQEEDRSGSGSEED
Procedure, shortened: as §1

Chain of BRM (P51531 whole entry): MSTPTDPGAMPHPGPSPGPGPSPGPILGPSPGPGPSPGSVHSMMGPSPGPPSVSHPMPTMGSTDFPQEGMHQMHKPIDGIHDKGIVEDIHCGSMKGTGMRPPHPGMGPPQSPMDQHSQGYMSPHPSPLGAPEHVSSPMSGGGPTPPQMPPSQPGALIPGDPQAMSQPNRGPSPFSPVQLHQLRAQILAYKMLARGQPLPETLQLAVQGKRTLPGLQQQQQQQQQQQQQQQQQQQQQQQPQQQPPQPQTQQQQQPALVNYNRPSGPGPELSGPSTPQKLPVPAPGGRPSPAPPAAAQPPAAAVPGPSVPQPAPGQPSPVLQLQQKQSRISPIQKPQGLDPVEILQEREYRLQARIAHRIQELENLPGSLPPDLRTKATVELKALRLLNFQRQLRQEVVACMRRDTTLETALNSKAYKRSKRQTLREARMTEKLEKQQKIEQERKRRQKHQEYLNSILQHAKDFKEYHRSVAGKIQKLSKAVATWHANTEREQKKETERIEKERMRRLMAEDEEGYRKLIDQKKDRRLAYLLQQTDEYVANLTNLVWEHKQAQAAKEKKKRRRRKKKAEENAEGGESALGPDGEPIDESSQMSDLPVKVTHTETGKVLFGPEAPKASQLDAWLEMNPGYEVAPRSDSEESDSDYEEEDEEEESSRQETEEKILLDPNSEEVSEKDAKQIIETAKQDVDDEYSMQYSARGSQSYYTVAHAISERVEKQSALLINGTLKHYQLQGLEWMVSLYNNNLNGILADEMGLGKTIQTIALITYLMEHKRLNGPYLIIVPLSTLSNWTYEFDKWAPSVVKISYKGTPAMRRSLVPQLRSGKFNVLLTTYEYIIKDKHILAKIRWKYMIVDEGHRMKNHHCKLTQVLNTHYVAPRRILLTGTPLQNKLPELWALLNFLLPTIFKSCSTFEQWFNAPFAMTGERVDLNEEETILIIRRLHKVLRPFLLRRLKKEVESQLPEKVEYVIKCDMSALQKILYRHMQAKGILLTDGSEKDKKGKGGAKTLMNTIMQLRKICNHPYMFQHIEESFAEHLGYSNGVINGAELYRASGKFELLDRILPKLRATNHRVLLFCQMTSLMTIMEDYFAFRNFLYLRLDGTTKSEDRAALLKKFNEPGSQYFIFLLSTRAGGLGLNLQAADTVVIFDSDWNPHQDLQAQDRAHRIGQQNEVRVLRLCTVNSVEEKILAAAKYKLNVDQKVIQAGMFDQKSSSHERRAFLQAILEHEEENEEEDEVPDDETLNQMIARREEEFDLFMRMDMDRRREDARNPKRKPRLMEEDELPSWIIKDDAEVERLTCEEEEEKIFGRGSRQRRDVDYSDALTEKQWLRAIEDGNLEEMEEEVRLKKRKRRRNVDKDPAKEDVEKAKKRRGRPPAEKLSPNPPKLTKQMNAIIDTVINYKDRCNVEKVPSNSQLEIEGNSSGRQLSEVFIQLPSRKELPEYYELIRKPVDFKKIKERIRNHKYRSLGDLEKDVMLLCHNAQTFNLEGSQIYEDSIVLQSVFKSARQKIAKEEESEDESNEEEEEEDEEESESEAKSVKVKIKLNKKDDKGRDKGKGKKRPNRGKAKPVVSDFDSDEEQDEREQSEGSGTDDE

Row | Structure (SMILES) | BRM Max % Inhibition ([1]; 30 nM BRM, 400 μM ATP) [%] | IC50 ([1]; 30 nM BRM, 400 μM ATP) [µM] | IC50 ([2]; 30 nM BRG-1, 400 μM ATP) [µM] | Emax ([2]; 30 nM BRG-1, 400 μM ATP) [%] | BRM Max % Inhibition [1] [%] | IC50 [1] [µM] | IC50 [2] [µM] | Emax [2] [%] | BRG1 Max % Inhibition [2] [%]
1 | COc1cccc(-c2csc(NC(=O)CNC(=O)c3ccc4c(c3)C(C)(C#N)CCN4)n2)c1 (stereo not shown) [Compound 415, 4-cyano-N-(2-((4-(3-methoxyphenyl)thiazol-2-yl)amino)-2-oxoethyl)-4-methyl-1,2,3,4-tetrahydroquinoline-6-carboxamide] | >90 | 0.1 to 1 | > 5 | > 90 | – | – | – | – | –
2 | CC(C)S(=O)(=O)c1cccc(C(=O)NCC(=O)Nc2nc(-c3cccc(-c4cccnc4)c3)cs2)c1 [Compound 39, 3-isopropylsulfonyl-N-[2-oxo-2-[[4-[3-(3-pyridyl)phenyl]thiazol-2-yl]amino]ethyl]benzamide] | – | – | – | – | >95 | 0.1 to 1 | 1 to 5 | > 90 | –
3 | Cc1cc(-c2cccc(-c3csc(NC(=O)CNC(=O)c4cccc(C(C)(C)CN)c4)n3)c2)cc(C)n1 [Compound 66, 3-(1-amino-2-methylpropan-2-yl)-N-(2-((4-(3-(2,6-dimethylpyridin-4-yl)phenyl)thiazol-2-yl)amino)-2-oxoethyl)benzamide] | – | – | – | – | >95 | < 0.1 | 0.1 to 1 | > 90 | –
4 | CC(C)N1CCOc2ccc(C(=O)NCC(=O)Nc3nc(-c4cccc(N5C[C@@H](C)O[C@@H](C)C5)n4)cs3)cc21 [Compound 395, N-(2-((4-(6-((cis)-2,6-dimethylmorpholino)pyridin-2-yl)thiazol-2-yl)amino)-2-oxoethyl)-4-isopropyl-3,4-dihydro-2H-benzo[b][1,4]oxazine-6-carboxamide] | – | – | – | – | >80 | 0.1 to 1 | > 5 | > 80 | –
5 | CC(C(F)(F)F)S(=O)(=O)c1cccc(C(=O)NCC(=O)Nc2nc(-c3cccc(-c4ccncc4)c3)cs2)c1 (stereo not shown) [Compound 113, N-(2-oxo-2-((4-(3-(pyridin-4-yl)phenyl)thiazol-2-yl)amino)ethyl)-3-((1,1,1-trifluoropropan-2-yl)sulfonyl)benzamide] | – | – | – | – | >80 | 0.1 to 1 | 0.1 to 1 | – | >50
6 | C[C@@H]1CN(c2cccc(-c3csc(NC(=O)CNC(=O)c4ccc5c(c4)C4(CCO4)COC5)n3)n2)C[C@H](C)O1 (stereo partly drawn) [Compound 376, N-(2-((4-(6-((cis)-2,6-dimethylmorpholino)pyridin-2-yl)thiazol-2-yl)amino)-2-oxoethyl)spiro[isochromane-4,2′-oxetane]-6-carboxamide] | – | – | – | – | >95 | < 0.1 | 0.1 to 1 | > 95 | –
7 | CC(=O)N1CC(c2cccc(-c3csc(NC(=O)CNC(=O)c4ccc5c(c4)[C@](C)(C#N)COC5)n3)c2)C1 [Compound 379, (R)-N-(2-((4-(3-(1-acetylazetidin-3-yl)phenyl)thiazol-2-yl)amino)-2-oxoethyl)-4-cyano-4-methylisochromane-6-carboxamide] | – | – | – | – | >95 | < 0.1 | 0.1 to 1 | > 95 | –
8 | Cc1cc(-c2cccc(-c3csc(NC(=O)CNC(=O)c4ccc(C)c(S(=O)(=O)C(C)C)c4)n3)n2)ncn1 [Compound 110, 3-isopropylsulfonyl-4-methyl-N-[2-[[4-[6-(6-methylpyrimidin-4-yl)-2-pyridyl]thiazol-2-yl]amino]-2-oxo-ethyl]benzamide] | – | – | – | – | >95 | < 0.1 | 0.1 to 1 | > 80 | –
9 | Cc1cc(C(=O)NCC(=O)Nc2nc(-c3cccc(-c4ccncc4)c3)cs2)cc(C(C)(C)CN)c1 [Compound 63, 3-(1-amino-2-methylpropan-2-yl)-5-methyl-N-(2-oxo-2-((4-(3-(pyridin-4-yl)phenyl)thiazol-2-yl)amino)ethyl)benzamide] | – | – | – | – | >80 | 1 to 5 | > 5 | > 60 | –
10 | C[C@@H]1CN(c2cccc(-c3csc(NC(=O)CNC(=O)c4ccc5c(c4)C(C)(C#N)OCC5)n3)n2)C[C@H](C)O1 (stereo partly drawn) [Compound 384, 1-cyano-N-(2-((4-(6-((cis)-2,6-dimethylmorpholino)pyridin-2-yl)thiazol-2-yl)amino)-2-oxoethyl)-1-methylisochromane-7-carboxamide] | – | – | – | – | >90 | 0.1 to 1 | 1 to 5 | > 90 | –
11 | C[C@@H]1CN(c2cccc(-c3csc(NC(=O)CNC(=O)c4ccc5c(c4)[C@@]4(CCO4)COC5)n3)n2)C[C@H](C)O1 [Compound 350, (S)-N-(2-((4-(6-((cis)-2,6-dimethylmorpholino)pyridin-2-yl)thiazol-2-yl)amino)-2-oxoethyl)spiro[isochromane-4,2′-oxetane]-6-carboxamide] | – | – | – | – | >95 | < 0.1 | 1 to 5 | > 95 | –
12 | CN1C[C@@](C)(C#N)c2cc(C(=O)NCC(=O)Nc3nc(-c4cc(F)cc(N5CCC5)c4)cs3)ccc21 [Compound 289, (S)-N-(2-((4-(3-(azetidin-1-yl)-5-fluorophenyl)thiazol-2-yl)amino)-2-oxoethyl)-3-cyano-1,3-dimethylindoline-5-carboxamide] | – | – | – | – | >95 | < 0.1 | < 0.1 | > 95 | –
13 | CC(O)(c1cccc(C(=O)NCC(=O)Nc2nc(-c3cccc(-c4ccncc4)c3)cs2)c1)C(F)(F)F (stereo not shown) [Compound 78, N-(2-oxo-2-((4-(3-(pyridin-4-yl)phenyl)thiazol-2-yl)amino)ethyl)-3-(1,1,1-trifluoro-2-hydroxypropan-2-yl)benzamide] | – | – | – | – | >80 | 0.1 to 1 | 1 to 5 | > 40 | –
14 | COC[C@H](NC(=O)c1cccc(S(=O)(=O)C(C)C)c1)C(=O)Nc1nc(-c2cccc(-c3ccnc(C)c3)c2)cs1 [Compound 32, (S)-3-(isopropylsulfonyl)-N-(3-methoxy-1-((4-(3-(2-methylpyridin-4-yl)phenyl)thiazol-2-yl)amino)-1-oxopropan-2-yl)benzamide] | – | – | – | – | >95 | 0.1 to 1 | 0.1 to 1 | > 80 | –
15 | O=C(CNC(=O)c1ccc2c(c1)S(=O)(=O)CCCC2)Nc1nc(-c2cccc(-c3ccncc3)c2)cs1 [Compound 129, 1,1-dioxo-N-[2-oxo-2-[[4-[3-(4-pyridyl)phenyl]thiazol-2-yl]amino]ethyl]-2,3,4,5-tetrahydro-1benzothiepine-8-carboxamide] | – | – | – | – | >95 | < 0.1 | < 0.1 | > 95 | –
16 | C[C@@H]1CN(c2cccc(-c3csc(NC(=O)CNC(=O)c4ccc(Cl)c(C(C)(C)CO)c4)n3)c2)C[C@H](C)O1 [Compound 244, 4-chloro-N-[2-[[4-[3-[(cis)-2,6-dimethylmorpholin-4-yl]phenyl]thiazol-2-yl]amino]-2-oxo-ethyl]-3-(2-hydroxy-1,1-dimethyl-ethyl)benzamide] | – | – | – | – | >95 | < 0.1 | 0.1 to 1 | > 95 | –
17 | CN1C(=O)CCc2ccc(-c3csc(NC(=O)CNC(=O)c4ccc5c(c4)[C@@](C)(CO)CC5)n3)cc21 [Compound 260, (S)-3-(hydroxymethyl)-3-methyl-N-(2-((4-(1-methyl-2-oxo-1,2,3,4-tetrahydroquinolin-7-yl)thiazol-2-yl)amino)-2-oxoethyl)-2,3-dihydro-1H-indene-5-carboxamide] | – | – | – | – | >60 | 1 to 5 | > 5 | > 30 | –
18 | C[C@@]1(C#N)COCc2ccc(C(=O)NCC(=O)Nc3nc(-c4cccc([C@H]5CC5(F)F)c4)cs3)cc21 [Compound 391, (R)-4-cyano-N-(2-((4-(3-((R)-2,2-difluorocyclopropyl)phenyl)thiazol-2-yl)amino)-2-oxoethyl)-4-methylisochromane-6-carboxamide] | – | – | – | – | >95 | < 0.1 | 0.1 to 1 | > 95 | –
19 | C[C@@H]1CN(c2cccc(-c3csc(NC(=O)CNC(=O)c4cccc(C(C)(C)CN)c4)n3)c2)C[C@H](C)O1 [Compound 99] | – | – | – | – | >95 | < 0.1 | 0.1 to 1 | > 90 | –
20 | C[C@@H]1CN(c2cccc(-c3csc(NC(=O)CNC(=O)c4ccc5c(c4)C(F)(C(F)F)CCO5)n3)n2)C[C@H](C)O1 (stereo in doubt) [Compound 273, (S)-4-(difluoromethyl)-N-(2-((4-(6-((cis)-2,6-dimethylmorpholino)pyridin-2-yl)thiazol-2-yl)amino)-2-oxoethyl)-4-fluorochromane-6-carboxamide] | – | – | – | – | >95 | < 0.1 | 0.1 to 1 | > 95 | –
21 | CN1CCc2ccc(-c3csc(NC(=O)CNC(=O)c4ccc5c(c4)[C@@](C)(CO)CC5)n3)cc2C1=O [Compound 258, (S)-3-(hydroxymethyl)-3-methyl-N-(2-((4-(2-methyl-1-oxo-1,2,3,4-tetrahydroisoquinolin-7-yl)thiazol-2-yl)amino)-2-oxoethyl)-2,3-dihydro-1H-indene-5-carboxamide] | – | – | – | – | >80 | 0.1 to 1 | 1 to 5 | – | >60
22 | C[C@]1(CO)CCc2ccc(C(=O)NCC(=O)Nc3nc(-c4ccn5ccnc5c4)cs3)cc21 [Compound 259, (S)-3-(hydroxymethyl)-N-(2-((4-(imidazo[1,2-a]pyridin-7-yl)thiazol-2-yl)amino)-2-oxoethyl)-3-methyl-2,3-dihydro-1H-indene-5-carboxamide] | – | – | – | – | >50 | 1 to 5 | > 5 | – | <30
